Test results: patent US20260215428A1, “WEED CONTROL METHOD” (SYNGENTA CROP PROTECTION AG, priority 2023, published 2026)

Assays:
Type in all cases: in vivo
Digitaria sanguinalis = assay: Glasshouse post-emergence test, visual damage, Table B1-4; settings: 14 days after application
Description: (§1) Seeds of a variety of test species are sown in standard soil in pots. For each treatment, three replicate pots containing 10-15 plants per one-inch pot were sprayed at the 2-3 leaf stage. Clethodim and Compound (Ic) were each applied at 15, 30, 60 and 120 g ai/ha. The test plants are then grown in a glasshouse under controlled conditions in a glasshouse (at 24/16° C., day/night; 14 hours light; 65% humidity) and watered twice daily. Plants were assessed for visual damage compared to the untreated control 14 days after application (0=0% damage; 100=100% damage).

Setaria viridis = assay: Glasshouse post-emergence test, visual damage, Table B1-5; settings: 14 days after application
Description: as §1

Lolium multiflorum = assay: Further glasshouse test versus other ACCase-inhibiting herbicides, Table B2-1; settings: 21 days after application
From the text: (§2) Further tests were employed to test the efficacy of a compound of Formula I versus other ACCase-inhibiting herbicides. The five main targets were Lolium multiflorum, Eleusine indica, Digitaria insularis, Sorghum halepense and Echinochloa crus-galli. Collectively, the populations contained all the major target-site resistance mutations affecting ACCase herbicides. Two L. multiflorum (LM-NTSR-1 and LM-NTSR-2) and one E. crus-galli (ECG-NTSR-1) populations were characterised exclusively by non-target-site resistance (“NTSR”). The target-site resistant L. multiflorum and E. indication populations were 100% homozygous for different ACCase mutations whilst the D. insularis, S. halepense and E. crus-galli samples contained a mixture of homozygous wild and mutant individuals at different genotypic frequencies. Additional underlying NTSR cannot be ruled out in the populations characterised by target-site resistance.
(§3) Around 50 seeds of each of the 24 weed populations were sown in 12-cm pots containing a mixture of peat and compost in a 1:1 ratio. The pots were watered, fertilised and kept in controlled glasshouse conditions set at 24° C./16 hr day, 18° C. night, 65% relative humidity, and a photon flux density of approximately 250 μmol quanta m^−2 s^−1 for Lolium multiflorum. The E. indica, D. insularis, S. halepense and E. crus-galli plants were kept in a separate glasshouse bay characterised by a 17 H photoperiod of 180 μmol m^−2 s^−1 with temperatures of 25° C. day and 19° C. night and 65% relative humidity. When the plants were at the two to four-leaf stage, they were treated with the various ACCase-inhibiting herbicides at 0, 15, 30, 60, 120 and 240 g ai ha^−1 in a spray cabinet mounted with a single mobile Teejet flat fan nozzle (11002VS) calibrated to deliver 200 L ha^−1 at 200 kPa. The L. multiflorum populations were treated by a compound of Formula Ic, clodinafop-propargyl, pinoxaden, cycloxydim and clethodim and the warm season grass weeds E. indica, D. insularis, S. halepense and E. crus-galli were sprayed with a Compound Ic and the commonly employed haloxyfop-methyl and clethodim. Three replicate pots were used per population. Plants were assessed for visual damage compared to the untreated control 21 days after application (0=0% damage; 100=100% damage).

Digitaria insularis = assay: Further glasshouse test versus other ACCase-inhibiting herbicides, Table B2-3; settings: 21 days after application
From the text: as §2, §3

Sorghum halepense = assay: Further glasshouse test versus other ACCase-inhibiting herbicides, Table B2-4; settings: 21 days after application
From the text: as §2, §3

Echinochloa Crus-galli = assay: Further glasshouse test versus other ACCase-inhibiting herbicides, Table B2-5; settings: 21 days after application
From the text: as §2, §3

CCSC(C)CC1CC(=O)C(/C(CC)=N/OC/C=C/Cl)=C(O)C1 (stereo not drawn) [Clethodim, clethodim]
visual damage (Digitaria sanguinalis; biotype I1781L (heterozygous), 15 g/ha): 20% | visual damage (Digitaria sanguinalis; biotype I1781L (heterozygous), 30 g/ha): 20% | visual damage (Digitaria sanguinalis; biotype I1781L (heterozygous), 60 g/ha): 53% | visual damage (Digitaria sanguinalis; biotype I1781L (heterozygous), 120 g/ha): 67% | visual damage (Digitaria sanguinalis; biotype Sensitive, 15 g/ha): 87% | visual damage (Digitaria sanguinalis; biotype Sensitive, 30 g/ha): 90% | visual damage (Digitaria sanguinalis; biotype Sensitive, 60 g/ha): 100% | visual damage (Digitaria sanguinalis; biotype Sensitive, 120 g/ha): 100% | visual damage (Setaria viridis; biotype GG2078 (homozygous), 15 g/ha): 30% | visual damage (Setaria viridis; biotype GG2078 (homozygous), 30 g/ha): 60% | visual damage (Setaria viridis; biotype GG2078 (homozygous), 60 g/ha): 63% | visual damage (Setaria viridis; biotype GG2078 (homozygous), 120 g/ha): 67% | visual damage (Setaria viridis; biotype II1781 (homozygous), 15 g/ha): 80% | visual damage (Setaria viridis; biotype II1781 (homozygous), 30 g/ha): 100% | visual damage (Setaria viridis; biotype II1781 (homozygous), 60 g/ha): 100% | visual damage (Setaria viridis; biotype II1781 (homozygous), 120 g/ha): 100% | visual damage (Setaria viridis; biotype LL1781 (homozygous), 15 g/ha): 50% | visual damage (Setaria viridis; biotype LL1781 (homozygous), 30 g/ha): 60% | visual damage (Setaria viridis; biotype LL1781 (homozygous), 60 g/ha): 60% | visual damage (Setaria viridis; biotype LL1781 (homozygous), 120 g/ha): 53% | visual damage (Setaria viridis; biotype Sensitive, 15 g/ha): 90% | visual damage (Setaria viridis; biotype Sensitive, 30 g/ha): 98% | visual damage (Setaria viridis; biotype Sensitive, 60 g/ha): 100% | visual damage (Setaria viridis; biotype Sensitive, 120 g/ha): 100% | visual damage (Lolium multiflorum; biotype C2088R, 15 g/ha): 0% | visual damage (Lolium multiflorum; biotype C2088R, 30 g/ha): 13% | visual damage (Lolium multiflorum; biotype C2088R, 60 g/ha): 40% | visual damage (Lolium multiflorum; biotype C2088R, 120 g/ha): 90% | visual damage (Lolium multiflorum; biotype C2088R, 240 g/ha): 100% | visual damage (Lolium multiflorum; biotype D2078G, 15 g/ha): 10% | visual damage (Lolium multiflorum; biotype D2078G, 30 g/ha): 17% | visual damage (Lolium multiflorum; biotype D2078G, 60 g/ha): 27% | visual damage (Lolium multiflorum; biotype D2078G, 120 g/ha): 70% | visual damage (Lolium multiflorum; biotype D2078G, 240 g/ha): 100% | visual damage (Lolium multiflorum; biotype I1781L, 15 g/ha): 23% | visual damage (Lolium multiflorum; biotype I1781L, 30 g/ha): 53% | visual damage (Lolium multiflorum; biotype I1781L, 60 g/ha): 70% | visual damage (Lolium multiflorum; biotype I1781L, 120 g/ha): 100% | visual damage (Lolium multiflorum; biotype I1781L, 240 g/ha): 100% | visual damage (Lolium multiflorum; biotype Sensitive, 15 g/ha): 100% | visual damage (Lolium multiflorum; biotype Sensitive, 30 g/ha): 100% | visual damage (Lolium multiflorum; biotype Sensitive, 60 g/ha): 100% | visual damage (Lolium multiflorum; biotype Sensitive, 120 g/ha): 100% | visual damage (Lolium multiflorum; biotype Sensitive, 240 g/ha): 100% | visual damage (Lolium multiflorum; biotype W1999S, 15 g/ha): 27% | visual damage (Lolium multiflorum; biotype W1999S, 30 g/ha): 98% | visual damage (Lolium multiflorum; biotype W1999S, 60 g/ha): 100% | visual damage (Lolium multiflorum; biotype W1999S, 120 g/ha): 100% | visual damage (Lolium multiflorum; biotype W1999S, 240 g/ha): 100% | visual damage (Lolium multiflorum; biotype W2027C, 15 g/ha): 63% | visual damage (Lolium multiflorum; biotype W2027C, 30 g/ha): 100% | visual damage (Lolium multiflorum; biotype W2027C, 60 g/ha): 100% | visual damage (Lolium multiflorum; biotype W2027C, 120 g/ha): 100% | visual damage (Lolium multiflorum; biotype W2027C, 240 g/ha): 100% | visual damage (Lolium multiflorum; population LM-NTSR-1 (non-target-site resistance), 15 g/ha): 63% | visual damage (Lolium multiflorum; population LM-NTSR-1 (non-target-site resistance), 30 g/ha): 97% | visual damage (Lolium multiflorum; population LM-NTSR-1 (non-target-site resistance), 60 g/ha): 100% | visual damage (Lolium multiflorum; population LM-NTSR-1 (non-target-site resistance), 120 g/ha): 100% | visual damage (Lolium multiflorum; population LM-NTSR-1 (non-target-site resistance), 240 g/ha): 100% | visual damage (Lolium multiflorum; population LM-NTSR-2 (non-target-site resistance), 15 g/ha): 3% | visual damage (Lolium multiflorum; population LM-NTSR-2 (non-target-site resistance), 30 g/ha): 55% | visual damage (Lolium multiflorum; population LM-NTSR-2 (non-target-site resistance), 60 g/ha): 70% | visual damage (Lolium multiflorum; population LM-NTSR-2 (non-target-site resistance), 120 g/ha): 75% | visual damage (Lolium multiflorum; population LM-NTSR-2 (non-target-site resistance), 240 g/ha): 95% | visual damage (Digitaria insularis; biotype Sensitive, 15 g/ha): 100% | visual damage (Digitaria insularis; biotype Sensitive, 30 g/ha): 100% | visual damage (Digitaria insularis; biotype Sensitive, 60 g/ha): 100% | visual damage (Digitaria insularis; biotype Sensitive, 120 g/ha): 100% | visual damage (Digitaria insularis; biotype Sensitive, 240 g/ha): 100% | visual damage (Digitaria insularis; biotype W2027C, 15 g/ha): 78% | visual damage (Digitaria insularis; biotype W2027C, 30 g/ha): 100% | visual damage (Digitaria insularis; biotype W2027C, 60 g/ha): 100% | visual damage (Digitaria insularis; biotype W2027C, 120 g/ha): 100% | visual damage (Digitaria insularis; biotype W2027C, 240 g/ha): 100% | visual damage (Sorghum halepense; biotype Sensitive, 15 g/ha): 83% | visual damage (Sorghum halepense; biotype Sensitive, 30 g/ha): 98% | visual damage (Sorghum halepense; biotype Sensitive, 60 g/ha): 100% | visual damage (Sorghum halepense; biotype Sensitive, 120 g/ha): 93% | visual damage (Sorghum halepense; biotype Sensitive, 240 g/ha): 98% | visual damage (Sorghum halepense; biotype W2027C, 15 g/ha): 50% | visual damage (Sorghum halepense; biotype W2027C, 30 g/ha): 92% | visual damage (Sorghum halepense; biotype W2027C, 60 g/ha): 100% | visual damage (Sorghum halepense; biotype W2027C, 120 g/ha): 100% | visual damage (Sorghum halepense; biotype W2027C, 240 g/ha): 100% | visual damage (Echinochloa Crus-galli; biotype Sensitive, 15 g/ha): 100% | visual damage (Echinochloa Crus-galli; biotype Sensitive, 30 g/ha): 100% | visual damage (Echinochloa Crus-galli; biotype Sensitive, 60 g/ha): 100% | visual damage (Echinochloa Crus-galli; biotype Sensitive, 120 g/ha): 100% | visual damage (Echinochloa Crus-galli; biotype Sensitive, 240 g/ha): 100% | visual damage (Echinochloa Crus-galli; biotype W2027C, 15 g/ha): 83% | visual damage (Echinochloa Crus-galli; biotype W2027C, 30 g/ha): 100% | visual damage (Echinochloa Crus-galli; biotype W2027C, 60 g/ha): 100% | visual damage (Echinochloa Crus-galli; biotype W2027C, 120 g/ha): 100% | visual damage (Echinochloa Crus-galli; biotype W2027C, 240 g/ha): 100% | visual damage (Echinochloa Crus-galli; population ECG-NTSR-1 (non-target-site resistance), 15 g/ha): 95% | visual damage (Echinochloa Crus-galli; population ECG-NTSR-1 (non-target-site resistance), 30 g/ha): 98% | visual damage (Echinochloa Crus-galli; population ECG-NTSR-1 (non-target-site resistance), 60 g/ha): 100% | visual damage (Echinochloa Crus-galli; population ECG-NTSR-1 (non-target-site resistance), 120 g/ha): 100% | visual damage (Echinochloa Crus-galli; population ECG-NTSR-1 (non-target-site resistance), 240 g/ha): 100%
